Target: T1, human iNOS (Homo sapiens, UniProt P35228)
T1 construct: expressed in transfected cells; host or cells: HEK293
Assay: DAN assay of nitric oxide production (hiNOS)
Type: cell-based
Conditions: enzyme expressed in HEK293 cells transiently transfected with human iNOS
In short: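 Human iNOS transiently expressed in HEK293 cells; NO production quantified as nitrite via 2,3-diaminonaphthalene reaction forming fluorescent naphthotriazole.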

T1 sequence (P35228 whole entry): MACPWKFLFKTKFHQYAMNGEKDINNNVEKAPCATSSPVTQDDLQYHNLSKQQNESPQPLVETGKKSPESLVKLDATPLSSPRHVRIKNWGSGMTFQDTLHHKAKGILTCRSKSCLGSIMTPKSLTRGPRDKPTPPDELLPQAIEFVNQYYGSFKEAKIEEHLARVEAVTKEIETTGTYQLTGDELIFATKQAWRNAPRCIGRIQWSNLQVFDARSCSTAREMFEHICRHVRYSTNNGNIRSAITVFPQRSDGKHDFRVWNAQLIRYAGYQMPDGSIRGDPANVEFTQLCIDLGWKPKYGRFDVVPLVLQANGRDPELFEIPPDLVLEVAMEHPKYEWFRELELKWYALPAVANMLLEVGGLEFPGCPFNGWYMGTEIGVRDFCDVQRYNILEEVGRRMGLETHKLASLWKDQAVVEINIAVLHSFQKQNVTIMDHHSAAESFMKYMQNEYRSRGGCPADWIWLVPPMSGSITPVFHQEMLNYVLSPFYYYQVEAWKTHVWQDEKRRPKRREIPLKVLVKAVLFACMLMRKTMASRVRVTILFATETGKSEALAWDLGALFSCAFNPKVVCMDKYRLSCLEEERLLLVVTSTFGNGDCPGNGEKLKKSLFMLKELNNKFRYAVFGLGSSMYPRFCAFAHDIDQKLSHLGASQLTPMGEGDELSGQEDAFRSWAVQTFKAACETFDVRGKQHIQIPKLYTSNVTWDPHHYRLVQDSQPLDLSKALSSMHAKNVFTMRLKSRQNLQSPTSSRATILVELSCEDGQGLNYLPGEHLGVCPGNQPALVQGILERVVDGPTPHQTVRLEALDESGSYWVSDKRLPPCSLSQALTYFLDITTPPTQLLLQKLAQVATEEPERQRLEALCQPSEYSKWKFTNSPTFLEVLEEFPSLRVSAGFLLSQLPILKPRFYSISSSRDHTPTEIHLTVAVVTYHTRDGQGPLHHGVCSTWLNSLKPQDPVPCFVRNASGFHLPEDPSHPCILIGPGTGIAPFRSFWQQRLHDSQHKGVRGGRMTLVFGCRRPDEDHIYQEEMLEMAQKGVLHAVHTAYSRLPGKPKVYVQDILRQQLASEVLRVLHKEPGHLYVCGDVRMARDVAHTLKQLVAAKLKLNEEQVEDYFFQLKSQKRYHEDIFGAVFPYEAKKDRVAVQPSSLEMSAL

EC50	Structure (SMILES)
> 5 µM	Cc1ncsc1C(=O)N(Cc1cc(=O)[nH]c2ccccc12)c1ccc(F)c(Cl)c1 [Example 39, N-(3-Chloro-4-fluorophenyl)-4-methyl-N-((2-oxo-1,2-dihydroquinolin-4-yl)methyl)thiazole-5-carboxamide]
> 5 µM	N#Cc1ccc(C(=O)N(Cc2cc(=O)[nH]c3c(F)cccc23)c2cccc(Cl)c2)cc1 [Example 66, N-(3-Chlorophenyl)-4-cyano-N-((8-fluoro-2-oxo-1,2-dihydroquinolin-4-yl)methyl)benzamide]
≤ 5 µM	COc1cccc(N(Cc2cc(=O)[nH]c3c(F)c(F)ccc23)C(=O)c2scnc2C)c1 [Example 180, N-(3-Methoxylphenyl)-N-((7,8-fluoro-2-oxo-1,2-dihydroquinolin-4-yl)methyl)-4-methylthiazole-5-carboxamide]
≤ 5 µM	Cc1ncsc1C(=O)N(Cc1cc(=O)[nH]c2c(F)c(F)ccc12)c1cc(F)cc(F)c1 [Example 178, N-(3,5-Difluorophenyl)-N-((7,8-fluoro-2-oxo-1,2-dihydroquinolin-4-yl)methyl)-4-methylthiazole-5-carboxamide]
